According to US20070078172A1, “MAO-B INHIBITORS USEFUL FOR TREATING OBESITY” (JENRIN DISCOVERY, priority 2005, published 2007):

What was measured:
[1] = Body weight and food intake in rats dosed for 14 weeks; format: in vivo, rat
Protocol: (§1) Single-housed rats weighing 230-350 grams at the start of the experiment were provided free access to laboratory rodent chow pellets and tap water. Rats were divided into two groups, eight rats per group, matched for food intake and body weight over a two week baseline period. […] The second group of rats (control rats) was similarly administered drug vehicle (0.25% methyl cellulose solution). Body weight and food intake were measured once a week for 14 weeks.

[2] = Terminal carcass composition (lipid, water, fat free dry weight); format: in vivo, rat; settings: 10.0 mg/kg orally once daily
Protocol: as §1
Terminal carcass composition was measured. Shaved, eviscerated rats were coarsely ground and dried to a constant weight at 70° C. Dehydrated carcasses were finely ground in a blender. Lipid was extracted from a homogeneous sample with petroleum ether. Water and lipid contents were determined gravimetrically, and the remaining carcass component was termed fat free dry weight.

Plasma leptin = Plasma leptin levels by commercial radioimmunoassay kit; format: in vivo, rat; settings: rats, 10.0 mg/kg orally once daily, end of 14 week study, vs control
Protocol: as §1
At the end of the experiment, rats were killed by exposure to carbon dioxide. Blood was collected by cardiac puncture, and rats were shaved and eviscerated. Retroperitoneal white adipose tissue, epidydimal white adipose tissue, adrenal gland, liver, kidney and testes were rapidly dissected and weighed. Plasma leptin levels were measured using a commercial radioimmunoassay kit.

[3] = Terminal tissue and organ weights (fat pads, adrenal gland, liver, kidney, testes); settings: 10.0 mg/kg orally once daily, end of 14 week study

C#CCN(C)[C@H](C)Cc1ccccc1 [L-selegiline]
lower weight gain compared to control rats ([1]; 10.0 mg/kg L-selegiline hydrochloride orally by gavage once daily, 14 week study): 14% | weight gain less than untreated counterparts ([1]; 10.0 mg/kg orally once daily, 14 week study): approximately 34 g | food intake versus control group ([1]; 10.0 mg/kg orally once daily, 14 weeks): comparable | adipose tissue gain less than that of untreated control rats ([2]; 14 weeks): 94% | share of the overall 34 gram weight loss accounted for by body fat reduction ([2]; rats, 14 weeks): 94% | lean body mass ([2]; rats, terminal carcass): no reduction | whole carcass water content ([2]; rats, terminal carcass): no reduction | plasma leptin levels reduced (Plasma leptin): 41% | epidydimal fat pad weighed less than in control rats [3]: 23% | retroperitoneal fat pad weighed less than in control rats [3]: 27% | weight of non-fat organs (adrenal gland, liver, kidney, testes) ([3]; rats): did not weigh less
